Assay results: patent US11478496B2, “Treatments of prostate cancer” (THE FLORIDA INTERNATIONAL UNIVERSITY BOARD OF TRUSTEES, priority 2020, dated 2022)

Experiments:
[1] = system: BER reconstituted with purified Pol β, FEN1, and LIG I; assay: Secondary gel-based BER assay reconstituted with purified core BER enzymes; type: biochemical; settings: 10 μM compound, THF substrate
Method: The secondary screening assay was performed as described below in the “Materials and Methods” section. Lane 1 represents the substrate only. Lane 2 indicates the reaction mixture with 5 nM APE1. Lanes 3 and 4 correspond to the reaction mixture with 5 nM APE1, 10 nM pol β, 10 nM FEN1 and 20 nM LIG I in the absence and presence of dimethylsulfoxide (DMSO). Lanes 5 through 19 correspond to the reaction mixture with 5 nM APE1, 10 nM pol β, 10 nM FEN1 and 20 nM LIG I in the presence of indicated compounds. The experiments were repeated at least three times. A representative gel is illustrated.
The hit compounds were subject to secondary assays to determine their ability to reduce the BER capacity when reconstituted with purified core BER enzymes, as well as their inhibitory effects on individual BER enzymes including pol FEN1 and LIG I. The effect of hit compounds on BER capacity and BER enzymes was examined using a denaturing sequencing gel-based assay. 10 μM hit compounds were incubated with 10 nM pol β, 10 nM FEN1 and 20 nM LIG I in BER reaction buffer containing 50 mM Tris-HCl (pH 7.5), 50 mM KCl, 0.1 mM EDTA, 0.1 mg/ml bovine serum albumin, and 0.01% Nonidet P-40 in the presence of 5 mM Mg^2+ and 2 mM ATP. The compounds were initially preincubated with a BER enzyme at varying concentrations for 1 h with rotation. This was followed by the addition of 25 nM ^32P-labeled substrate containing an abasic site, which was precut with 25 or 50 nM APEI. The reaction mixture (20 μL) was incubated at 37° C. for 30 min, and the reaction was terminated by 50 mM EDTA. Substrates, products, and unrepaired BER intermediates were separated by 15% urea-denaturing sequencing gel and detected by a Pharos FX Plus PhosphorImager (Bio-Rad, Hercules, Calif.).
Among the 26 identified compounds, nine were DNA intercalators or inhibitors of human DNA topoisomerases and were excluded from further studies. Thus, […] FDA approved drugs were selected for further testing. To further confirm the inhibitory effects of the lead compounds on BER, the effects of the compounds on BER reactions reconstituted with purified BER core enzymes were initially determined.

LNCaP cells = assay: RTCA impedance proliferation assay, LNCaP; type: cell-based; settings: 10 μM; for LNCaP cell proliferation, concentration dependence: 1 μM and 0.1 μM
Method: (5A-5B) LNCaP cells were plated onto xCelligence E-plates at 10^4 cells per well in medium supplemented with either 10% FBS (5A) or 10% CSS (5B) serum. […] (5C-5D) LAPC4 cells were plated at 5×10^4 cells per well onto xCelligence E-plates in media supplemented with FBS (5C) or CSS (5D) and allowed to attach overnight. Treatment was conducted as in (5A-5B) and impedance measured continuously in 30 min intervals. […] Background impedance was established after incubating E-plates (Acea Biosciences, San Diego, Calif.) with 50 μL media at room temperature for 30 min and placed in RTCA. Cells were then seeded in 100 μL per well. Cells attached overnight and then treated. During attachment stage and after treatment impedance was measured every 30 min. Impedance is represented by cell index and is calculated as follows: CI=(Zi−Zo)/15Ω where Zi is impedance at an individual time point, and Zo is the background impedance. Average CI was calculated from four wells per treatment at each time point and normalized to the impedance immediately after compound addition.

PNT1A cells = assay: RTCA impedance proliferation assay, PNT1A; type: cell-based; settings: 10 μM
Method: (6A-6B) PNT1A cells were plated onto xCelligence E-plates at 5×10^4 cells per well in media supplemented with 10% FBS (6A) or CSS (6B). Cells were allowed to attach overnight and treated with vehicle (DMSO) or 10 μM of indicated compounds. Cellular impedance was monitored continuously with 30 min intervals. (6C) RWPE1 cells were plated at 5×10^4 cells per well in serum free medium supplemented with Epidermal Growth Factor (EGF) and Bovine Pituitary Extract ([…]) onto E-plates and treated with 10 μM of indicated compounds as indicated. […] Background impedance was established after incubating E-plates (Acea Biosciences, San Diego, Calif.) with 50 μL media at room temperature for 30 min and placed in RTCA. Cells were then seeded in 100 μL per well. Cells attached overnight and then treated. During attachment stage and after treatment impedance was measured every 30 min. Impedance is represented by cell index and is calculated as follows: CI=(Zi−Zo)/15Ω where Zi is impedance at an individual time point, and Zo is the background impedance. Average CI was calculated from four wells per treatment at each time point and normalized to the impedance immediately after compound addition.

RWPE1 cells = assay: RTCA impedance proliferation assay, RWPE1; type: cell-based; settings: 10 μM; serum free medium
Method: (6A-6B) PNT1A cells were plated onto xCelligence E-plates at 5×10^4 cells per well in media supplemented with 10% FBS (6A) or CSS (6B). Cells were allowed to attach overnight and treated with vehicle (DMSO) or 10 μM of indicated compounds. Cellular impedance was monitored continuously with 30 min intervals. (6C) RWPE1 cells were plated at 5×10^4 cells per well in serum free medium supplemented with Epidermal Growth Factor (EGF) and Bovine Pituitary Extract ([…]) onto E-plates and treated with 10 μM of indicated compounds as indicated. […] Proliferation assays were done using Roche DP Real Time Cell Analyzer (RTCA), as described by the manufacturer. Background impedance was established after incubating E-plates (Acea Biosciences, San Diego, Calif.) with 50 μL media at room temperature for 30 min and placed in RTCA. Cells were then seeded in 100 μL per well. Cells attached overnight and then treated. During attachment stage and after treatment impedance was measured every 30 min. Impedance is represented by cell index and is calculated as follows: CI=(Zi−Zo)/15Ω where Zi is impedance at an individual time point, and Zo is the background impedance. Average CI was calculated from four wells per treatment at each time point and normalized to the impedance immediately after compound addition.

In the case of `C[C@@H]1C/C=C/C=C/C=C/C=C/[C@H](O[C@@H]2O[C@H](C)[C@@H](O)[C@H](N)[C@@H]2O)C[C@@H]2O[C@](O)(C[C@@H](O)C[C@H]3O[C@@H]3/C=C/C(=O)O1)C[C@H](O)[C@H]2C(=O)O` [natamycin], the “BER capacity and production of the BER repair product” value [1] is reported as “significantly reduced BER capacity”, the “LNCaP cell proliferation, concentration dependence” value (LNCaP cells; FBS medium) is reported as “significantly inhibited by all concentrations” and the “LNCaP cell proliferation, concentration dependence” value (LNCaP cells; medium with CSS) is reported as 10 μM and 1 μM were inhibitory. For the same compound, the LNCaP cellular proliferation (LNCaP cells; FBS) was “slowest proliferation rate”, the LNCaP cellular impedance (LNCaP cells; androgen depleted medium (CSS)) was “abolished cellular impedance” and the “PNT1A cell proliferation, concentration dependence” value (PNT1A cells; 1 μM and 0.1 μM, both CSS and FBS medium) was “inhibited only with 10 μM”. For the same compound, the “time of treatment at which effect on PNT1A proliferation became evident” value (PNT1A cells; FBS and CSS media) was 42 h, the PNT1A proliferation (PNT1A cells; both FBS and CSS supplemented media) was “proliferated in the presence of all inhibitors except natamycin” and the RWPE1 proliferation (RWPE1 cells) was “slightly inhibited”.
